Measurements reported in patent US10226413B2, “Solution solubilization composition of insoluble material and method for solubilizing insoluble material using same” (Damy Chemical Co., Ltd., priority 2013, dated 2019).

Procedure: The turbidity of each lotion was measured using a spectrophotometer at 620 nm. A high turbidity of a liquid indicates cloudiness of the liquid and a low turbidity of a liquid indicates high transparency of the liquid. The turbidity (optical density) of the lotion was measured in the range of 0.01-1.0.
The amount of light passing through each solution was measured. The transmittance (T, %) of the solution for light was calculated as follows. First, the measured absorbance was substituted into -log t=A (absorbance, O.D). Since t is always not greater than 1, the transmittance (T) was calculated and expressed in percentage by T (%)=t×100. The transmittance is between 1 and 100%. The higher the transmittance, the higher the transparency. The transmittance of purified water was defined as 100%.

SMILES | solubilization in water by the composition (turbidity and transmittance)
C[C@@H]1O[C@@H](OC[C@H]2O[C@@H](Oc3c(-c4ccc(O)c(O)c4)oc4cc(O)cc(O)c4c3=O)[C@H](O)[C@@H](O)[C@@H]2O)[C@H](O)[C@H](O)[C@H]1O [rutin] | can solubilize
COC1=C(OC)C(=O)C(C/C=C(\C)CC/C=C(\C)CC/C=C(\C)CC/C=C(\C)CC/C=C(\C)CC/C=C(\C)CC/C=C(\C)CC/C=C(\C)CC/C=C(\C)CCC=C(C)C)=C(C)C1=O [ubiquinone] | can solubilize
